The values below come from ChEMBL document CHEMBL5154916, “Multiparameter Optimization of Naphthyridine Derivatives as Selective α5-GABAA Receptor Negative Allosteric Modulators” (J Med Chem, 2022).

Series [1] addresses T1, GABA-A receptor; alpha-5/beta-3/gamma-2 (Homo sapiens) (UniProt P18507+P28472+P31644). The experiment in a line: Negative allosteric modulation activity at human recombinant alpha5beta3gamma2 GABAA receptor stably expressed in HEK293 cells assessed as modulation at alpha5 subunit at 10 uM by Patch clamp method. The format is cell-based. The note with it: filed as negative allosteric modulator. For orientation: The patch-clamp technique gives a direct electrical read-out from membranes.

Series [2] is described as follows: Apparent permeability in human Caco-2 cells at 10 uM by HPLC-UV analysis. It is filed as ADME, cell-based.
The nature of series [3]: Metabolic stability in Wistar rat liver microsomes assessed as intrinsic clearance at 2.5 uM. It is filed as ADME, Microsome. Conditions: read-out: CLH.
Series [4] deals with T2, GABA-A receptor; alpha-5/beta-3/gamma-2 (Homo sapiens, UniProt P18507+P28472+P31644).
T2 sequence (P18507 whole entry): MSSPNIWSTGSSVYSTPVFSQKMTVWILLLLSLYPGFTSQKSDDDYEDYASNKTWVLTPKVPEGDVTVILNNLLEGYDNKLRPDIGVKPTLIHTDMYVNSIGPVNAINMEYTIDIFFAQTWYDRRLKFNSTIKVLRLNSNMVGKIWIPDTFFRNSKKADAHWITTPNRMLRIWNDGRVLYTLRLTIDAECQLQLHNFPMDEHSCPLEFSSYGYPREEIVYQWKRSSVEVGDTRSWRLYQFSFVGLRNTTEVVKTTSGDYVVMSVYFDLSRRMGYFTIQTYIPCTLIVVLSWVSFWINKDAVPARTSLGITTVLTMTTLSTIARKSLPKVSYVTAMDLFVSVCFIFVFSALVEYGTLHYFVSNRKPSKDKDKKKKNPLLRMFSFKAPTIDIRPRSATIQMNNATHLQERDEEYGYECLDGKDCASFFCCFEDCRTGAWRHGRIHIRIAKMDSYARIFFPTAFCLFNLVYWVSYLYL
T2 sequence (P28472 whole entry): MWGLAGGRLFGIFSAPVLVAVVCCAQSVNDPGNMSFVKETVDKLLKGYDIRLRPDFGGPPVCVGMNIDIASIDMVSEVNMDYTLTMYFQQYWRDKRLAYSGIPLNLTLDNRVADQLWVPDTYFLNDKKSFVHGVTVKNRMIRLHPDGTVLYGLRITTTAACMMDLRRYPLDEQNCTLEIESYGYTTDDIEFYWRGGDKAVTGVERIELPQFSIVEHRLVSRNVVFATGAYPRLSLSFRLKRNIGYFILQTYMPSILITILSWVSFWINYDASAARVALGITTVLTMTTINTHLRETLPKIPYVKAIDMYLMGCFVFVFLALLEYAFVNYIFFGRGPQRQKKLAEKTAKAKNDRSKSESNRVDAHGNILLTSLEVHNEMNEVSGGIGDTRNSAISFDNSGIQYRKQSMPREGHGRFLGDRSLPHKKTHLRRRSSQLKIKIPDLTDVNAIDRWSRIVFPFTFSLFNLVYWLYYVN
T2 sequence (P31644 whole entry): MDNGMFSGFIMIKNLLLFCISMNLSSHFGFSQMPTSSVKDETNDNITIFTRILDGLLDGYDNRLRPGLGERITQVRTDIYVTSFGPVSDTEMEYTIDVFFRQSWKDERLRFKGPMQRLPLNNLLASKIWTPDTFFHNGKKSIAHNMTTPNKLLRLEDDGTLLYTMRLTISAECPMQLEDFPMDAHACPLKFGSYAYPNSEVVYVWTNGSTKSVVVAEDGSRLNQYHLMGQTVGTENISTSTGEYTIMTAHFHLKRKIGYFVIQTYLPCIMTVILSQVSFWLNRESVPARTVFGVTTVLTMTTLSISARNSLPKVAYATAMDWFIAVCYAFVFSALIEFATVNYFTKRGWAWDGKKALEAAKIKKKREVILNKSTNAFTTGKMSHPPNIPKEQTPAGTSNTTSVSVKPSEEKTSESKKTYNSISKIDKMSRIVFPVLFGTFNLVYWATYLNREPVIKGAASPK
Kind of series: Displacement of [3H]Ro151788 from human recombinant alpha5beta3gamma2 GABAA receptor stably expressed in HEK293 cell membrane assessed as inhibition constant by radioligand binding assay. It is filed as cell membranes.

A short description of series [5]: Ratio of drug level in brain to plasma in Wistar rat at 3 mg/kg, po measured at 1.5 hr post dose. It is filed as ADME, organism-based. The note with it: brain and plasma, read-out: BPR.
For series [6], the target named is GABA-A receptor; alpha-1/beta-3/gamma-2 (Homo sapiens) (UniProt P14867+P18507+P28472). Kind of series: Negative allosteric modulation activity at human recombinant alpha1beta3gamma2 GABAA receptor stably expressed in HEK293 cells assessed as modulation at alpha1 subunit at 10 uM by Patch clamp method. It is filed as cell-based. The note with it: filed as negative allosteric modulator.

In series [7] the target is T1, GABA-A receptor; alpha-5/beta-3/gamma-2 (Homo sapiens). Kind of series: Negative allosteric modulation activity at human recombinant alpha5beta3gamma2 GABAA receptor stably expressed in HEK293 cells assessed as modulation at alpha5 subunit at 1 uM by Patch clamp method. It is filed as cell-based. The note with it: filed as negative allosteric modulator.
Series [8] in a line: Passive permeability in human Caco-2 cells assessed as permeability damage ratio at 10 uM by HPLC-UV analysis. It is filed as ADME, cell-based. The note with it: caco-2, 10 µM. In general terms: Caco-2 cells form a polarised layer with tight junctions and transporters.
Series [9] in a line: Metabolic stability in human liver microsomes assessed as intrinsic clearance at 2.5 uM. It is filed as ADME, Microsome. Conditions: read-out: CLH. (In general: Liver microsomes are a subcellular fraction often used to study metabolism.)
Series [10] deals with Voltage-gated inwardly rectifying potassium channel KCNH2 (Homo sapiens, UniProt Q12809). The experiment in a line: Inhibition of hERG expressed in CHO cells stably at -80 mV holding potential by automated patch clamp method. It is filed as toxicity, cell-based.

The structures appear in SMILES notation. pIC50, pKi: −log10 of the molar value. Bounds are passed on as bounds.

Sequence of Voltage-gated inwardly rectifying potassium channel KCNH2 (Q12809 whole entry): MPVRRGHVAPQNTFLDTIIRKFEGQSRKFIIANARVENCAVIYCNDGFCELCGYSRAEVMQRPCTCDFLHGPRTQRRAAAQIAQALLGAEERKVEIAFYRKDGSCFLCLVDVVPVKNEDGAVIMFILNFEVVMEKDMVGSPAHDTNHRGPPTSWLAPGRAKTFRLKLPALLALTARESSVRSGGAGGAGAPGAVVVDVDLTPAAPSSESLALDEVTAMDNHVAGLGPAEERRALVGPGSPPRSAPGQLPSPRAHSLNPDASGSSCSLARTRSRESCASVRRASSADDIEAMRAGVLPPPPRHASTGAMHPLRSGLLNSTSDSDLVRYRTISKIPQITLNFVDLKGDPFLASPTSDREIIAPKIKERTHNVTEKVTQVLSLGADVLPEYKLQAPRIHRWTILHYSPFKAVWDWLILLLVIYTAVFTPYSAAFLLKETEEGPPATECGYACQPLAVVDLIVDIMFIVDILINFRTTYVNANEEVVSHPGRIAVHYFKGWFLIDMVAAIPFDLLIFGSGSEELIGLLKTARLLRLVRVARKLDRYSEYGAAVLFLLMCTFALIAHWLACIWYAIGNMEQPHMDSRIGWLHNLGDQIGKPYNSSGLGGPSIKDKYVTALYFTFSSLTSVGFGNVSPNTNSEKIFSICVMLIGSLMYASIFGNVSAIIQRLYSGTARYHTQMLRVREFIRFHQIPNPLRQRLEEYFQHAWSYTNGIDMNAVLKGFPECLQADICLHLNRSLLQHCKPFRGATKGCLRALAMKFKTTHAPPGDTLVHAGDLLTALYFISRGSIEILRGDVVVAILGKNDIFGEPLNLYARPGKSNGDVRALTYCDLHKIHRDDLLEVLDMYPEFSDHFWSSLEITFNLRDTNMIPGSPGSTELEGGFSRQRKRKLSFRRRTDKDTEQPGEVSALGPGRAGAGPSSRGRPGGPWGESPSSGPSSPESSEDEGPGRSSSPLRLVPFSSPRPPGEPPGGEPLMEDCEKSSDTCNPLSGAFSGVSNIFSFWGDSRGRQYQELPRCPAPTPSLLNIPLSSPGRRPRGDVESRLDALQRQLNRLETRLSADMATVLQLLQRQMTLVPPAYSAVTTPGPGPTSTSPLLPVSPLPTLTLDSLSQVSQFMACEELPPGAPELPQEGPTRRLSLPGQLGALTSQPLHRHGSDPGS

Consider `Cc1nnn(-c2ccc(F)cc2)c1COc1ccc2c(n1)CCN(C(=O)C1CCCO1)C2` (configuration not stated), for which the Activity in series [1] is -43%; in series [6] it was -8%; in series [7] it was -30%. For the same compound, the Papp (usually a coefficient for how fast a substance crosses the barrier) at 10 µM in series [2] is 47.1 ×10⁻⁶ cm/s. The microsomal CLint at 2.5 µM in series [3] came out at 46 µL/min/mg; in series [9] it was 15 µL/min/mg. Also, in series [4], the pKi (as a rule, the negative decadic logarithm of the Ki, by convention in mol/L) was 7.41. Further, the Kp at 1.5 h in series [5] was 0.31. Further, in series [8], the Ratio stood at 0.92. The pIC50 (commonly the negative decadic logarithm of the IC50, by convention in mol/L) in [10] was < 4.52.
For the compound `Cc1onc(-c2ccc(F)cc2)c1COc1ccc2c(n1)CCN(C(=O)C1CCOC1)C2` (configuration not stated), the Activity in [1] is -40%; in series [6] it was -14%; in series [7] it was -24%. The microsomal CLint at 2.5 µM in series [3] turned out to be 158 µL/min/mg; in series [9], 24 µL/min/mg. The pKi in [4] was 8.15. Besides, the negative-log IC50 (pIC50) in [10] was 5.44.
For `Cc1nnn(-c2ccc(F)cc2)c1COc1ccc2c(n1)CCN(C(=O)C1CC(=O)N(C)C1)C2` (configuration not stated), the Activity is -47% in [1] and -32% in series [7]. In series [2], the Papp at 10 µM is 7.54 ×10⁻⁶ cm/s. Moreover, the microsomal CLint at 2.5 µM in series [3] stood at 4 µL/min/mg; in series [9] it was 1 µL/min/mg. The pKi in series [4] is 7.46. In series [8], the Ratio was 8.9. Further, the pIC50 in [10] is 4.52.
As for `Cc1onc(-c2ccc(F)cc2)c1COc1ccc2c(n1)CCN(CCS(C)(=O)=O)C2=O`, the Activity is -46% in series [1], -12% in series [6] and -33% in [7]. Besides, in series [2], the Papp at 10 µM is 49.3 ×10⁻⁶ cm/s. Also, the microsomal CLint at 2.5 µM was determined as 89 µL/min/mg in [3] and 7 µL/min/mg in series [9]. Besides, in series [4], the pKi is 8.11. For the same compound, the Ratio in series [8] is recorded as 1.1. The same compound showed a pIC50 in [10] of 5.96.
For `Cc1onc(-c2ccc(F)cc2)c1COc1ccc2c(n1)CCN(C)C2=O`, the Activity in [1] is -31%; in series [6], -8%; in series [7] it was -21%. The microsomal CLint at 2.5 µM in series [3] turned out to be 404 µL/min/mg; in [9], 28 µL/min/mg. For the same compound, the pKi in series [4] is 8.55. The same compound showed a pIC50 in series [10] of 5.42.
With `Cc1nnn(-c2ccc(F)cc2)c1COc1ccc2c(n1)CCN(C(=O)NC1CC(=O)N(C)C1)C2` (configuration not stated), the Activity in series [1] was -35%; in [6] it was -3%; in series [7], -31%. In addition, the Papp at 10 µM in series [2] was determined as 0.33 ×10⁻⁶ cm/s. Moreover, the microsomal CLint at 2.5 µM in [3] was determined as 11 µL/min/mg; in series [9], 4 µL/min/mg. In addition, the negative-log Ki (pKi) in [4] was 7.42. Also, the Ratio in series [8] worked out at 134. Moreover, the negative-log IC50 (pIC50) in [10] was < 4.52.
`Cc1nnn(-c2ccc(F)cc2)c1COc1ccc2c(n1)CCN(C(=O)NC1CCOC1)C2` (configuration not stated): the Activity in series [1] is -34%; in series [7], -32%. Also, in series [2], the Papp at 10 µM amounted to 18.7 ×10⁻⁶ cm/s. In addition, the microsomal CLint at 2.5 µM in series [3] amounted to 39 µL/min/mg; in series [9] it was 10 µL/min/mg. Besides, the pKi in [4] is 7.55. In addition, the Ratio in series [8] amounted to 4.7. Also, in [10], the negative logarithm of the IC50 (pIC50) is 4.68.
`Cc1onc(-c2ccc(F)cc2)c1COc1ccc2c(n1)CCN(C(=O)C1CCS(=O)(=O)CC1)C2`: the values for the Activity in [1], in [6] and in [7] were -38%, -10% and -22%, respectively. Moreover, the results for the microsomal CLint at 2.5 µM in series [3] and in series [9] were 36 µL/min/mg and 10 µL/min/mg, respectively. The pKi in [4] is 8.44. Also, in [10], the pIC50 was 5.54.
With `Cc1onc(-c2ccc(F)cc2)c1COc1ccc2c(n1)CCN(C(=O)C1CCOCC1)C2`, the Activity in [1] was -37%; in series [6] it was -9%; in series [7], -20%. The microsomal CLint at 2.5 µM in series [3] worked out at 93 µL/min/mg; in series [9], 10 µL/min/mg. Also, the pKi in [4] was 8.04. Further, the pIC50 in series [10] was 5.24.
